Active and inactive are the calls of the source.
Experiments:
[1] = molecular target: T1, Sentrin-specific protease 6 (Homo sapiens, UniProt Q9GZR1); type: functional;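 note: Luminescence-based dose-response confirmatory assay of SENP6 inhibition, following up an ultra-high-throughput screen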
T1 sequence (Q9GZR1 whole entry): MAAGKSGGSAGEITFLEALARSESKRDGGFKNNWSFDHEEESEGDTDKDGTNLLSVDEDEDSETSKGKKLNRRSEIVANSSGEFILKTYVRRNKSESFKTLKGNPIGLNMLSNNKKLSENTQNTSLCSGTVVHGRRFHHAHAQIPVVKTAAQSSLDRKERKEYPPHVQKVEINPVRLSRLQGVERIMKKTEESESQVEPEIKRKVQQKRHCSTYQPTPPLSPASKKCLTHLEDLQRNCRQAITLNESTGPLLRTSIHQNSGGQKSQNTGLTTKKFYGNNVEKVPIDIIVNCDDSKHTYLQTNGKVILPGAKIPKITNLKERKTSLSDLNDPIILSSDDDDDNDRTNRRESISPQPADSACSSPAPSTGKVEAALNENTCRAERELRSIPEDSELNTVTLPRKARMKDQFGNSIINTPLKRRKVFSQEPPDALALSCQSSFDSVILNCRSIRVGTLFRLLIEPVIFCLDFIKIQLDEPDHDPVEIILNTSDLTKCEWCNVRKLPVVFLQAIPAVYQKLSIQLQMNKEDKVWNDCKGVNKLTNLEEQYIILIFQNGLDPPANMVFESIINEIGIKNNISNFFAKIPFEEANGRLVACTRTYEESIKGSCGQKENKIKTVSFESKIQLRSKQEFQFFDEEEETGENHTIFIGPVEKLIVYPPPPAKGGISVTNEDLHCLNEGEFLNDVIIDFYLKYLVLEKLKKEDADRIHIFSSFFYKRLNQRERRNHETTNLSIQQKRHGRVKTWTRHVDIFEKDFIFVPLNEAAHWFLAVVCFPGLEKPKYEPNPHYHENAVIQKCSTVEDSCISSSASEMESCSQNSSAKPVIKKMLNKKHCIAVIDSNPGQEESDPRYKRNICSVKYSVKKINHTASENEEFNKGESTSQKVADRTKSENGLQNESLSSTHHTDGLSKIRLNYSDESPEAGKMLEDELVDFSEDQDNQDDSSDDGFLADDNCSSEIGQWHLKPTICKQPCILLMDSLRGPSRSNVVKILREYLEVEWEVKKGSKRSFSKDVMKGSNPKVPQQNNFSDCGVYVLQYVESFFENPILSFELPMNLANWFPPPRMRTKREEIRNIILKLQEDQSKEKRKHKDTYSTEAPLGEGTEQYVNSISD

[2] = molecular target: Dual specificity protein kinase CLK2 (Homo sapiens, UniProt P49760); type: functional
[3] = molecular target: Tyrosine-protein kinase JAK2 (Homo sapiens, UniProt O60674); type: functional;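 note: JAK2 tested as one member of a kinase panel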
[4] = molecular target: cGMP-dependent protein kinase 1 (Homo sapiens, UniProt Q13976); type: functional;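 note: value from a kinome panel screen with PRKG1 as the panel member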
[5] = molecular target: Serine/threonine-protein kinase PLK3 (Homo sapiens, UniProt Q9H4B4); type: functional
[6] = molecular target: Proto-oncogene tyrosine-protein kinase receptor Ret (Homo sapiens, UniProt P07949); type: functional;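 note: measured within a kinome-wide profiling panel, RET as the panel member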
[7] = molecular target: Tyrosine-protein kinase SYK (Homo sapiens, UniProt P43405); type: functional
[8] = molecular target: Tyrosine-protein kinase receptor TYRO3 (Homo sapiens, UniProt Q06418); type: functional;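 note: TYRO3 value obtained as one member of a kinome-wide profiling panel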
[9] = molecular target: Tyrosine-protein kinase Lck (Homo sapiens, UniProt P06239); type: functional;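 note: lck was assayed as one member of a kinase panel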
[10] = molecular target: Tyrosine-protein kinase BTK (Homo sapiens, UniProt Q06187); type: functional
[11] = molecular target: Mast/stem cell growth factor receptor Kit (Homo sapiens, UniProt P10721); type: functional;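 note: KIT entry within a kinase panel assay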
[12] = molecular target: Tyrosine-protein kinase JAK3 (Homo sapiens, UniProt P52333); type: functional
LIM domain kinase 1 = LIM domain kinase 1 (Homo sapiens, UniProt P53667); assay: Navigating the Kinome. Panel member name: LIMK1; type: functional
[13] = molecular target: Non-receptor tyrosine-protein kinase TYK2 (Homo sapiens, UniProt P29597); type: functional
Activated CDC42 kinase 1 = Activated CDC42 kinase 1 (Homo sapiens, UniProt Q07912); assay: Navigating the Kinome. Panel member name: ACK1; type: functional
[14] = molecular target: Insulin-like growth factor 1 receptor (Homo sapiens, UniProt P08069); assay: Navigating the Kinome. Panel member name: IGF1R; type: functional
[15] = molecular target: cAMP-dependent protein kinase catalytic subunit PRKX (Homo sapiens, UniProt P51817); type: functional
[16] = molecular target: RAC-alpha serine/threonine-protein kinase (Homo sapiens, UniProt P31749); type: functional;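 note: AKT1 affinity measured as one member of a kinome-wide kinase profiling panel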
[17] = molecular target: Tyrosine-protein kinase Fyn (Homo sapiens, UniProt P06241); type: functional
[18] = molecular target: Homeodomain-interacting protein kinase 4 (Homo sapiens, UniProt Q8NE63); type: functional
[19] = molecular target: Serine/threonine-protein kinase Nek2 (Homo sapiens, UniProt P51955); type: functional
[20] = molecular target: cAMP-dependent protein kinase catalytic subunit alpha (Homo sapiens, UniProt P17612); type: functional
[21] = molecular target: Mitogen-activated protein kinase 12 (Homo sapiens, UniProt P53778); type: functional;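 note: measured as one member of a kinome-wide kinase profiling panel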
[22] = molecular target: Serine/threonine-protein kinase BRSK1 (Homo sapiens, UniProt Q8TDC3); type: functional;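 note: measured within a kinome-wide kinase panel, with the target listed as KIAA1811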
[23] = molecular target: Dual specificity tyrosine-phosphorylation-regulated kinase 1A (Homo sapiens, UniProt Q13627); type: functional;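 note: measured against DYRK1A as one member of a broad kinome profiling panel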
[24] = molecular target: Mitogen-activated protein kinase 14 (Homo sapiens, UniProt Q16539); type: functional;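 note: part of a kinome-wide panel, MAPK14 entry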
SUMO-activating enzyme = SUMO-activating enzyme (Homo sapiens, UniProt Q9UBT2); assay: blockers of SAE1/SAE2–UBC9 SUMO transfer – biochemical, HTRF, uHTS, primary screen (AID 2006); type: protein-complex assay
[25] = HEK-293T cell viability reduction – luminescence, B-cell screen hits, cytotoxicity control for BCR NF-kB inhibitor project, dose response (AID 489021); type: functional, cell-based;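 note: HEK-293T cells carrying an NF-kB luciferase reporter; cells exposed to compound for about 14 hours before viability readout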

Tyrosine-protein kinase BTK, sequence (Q06187 whole entry): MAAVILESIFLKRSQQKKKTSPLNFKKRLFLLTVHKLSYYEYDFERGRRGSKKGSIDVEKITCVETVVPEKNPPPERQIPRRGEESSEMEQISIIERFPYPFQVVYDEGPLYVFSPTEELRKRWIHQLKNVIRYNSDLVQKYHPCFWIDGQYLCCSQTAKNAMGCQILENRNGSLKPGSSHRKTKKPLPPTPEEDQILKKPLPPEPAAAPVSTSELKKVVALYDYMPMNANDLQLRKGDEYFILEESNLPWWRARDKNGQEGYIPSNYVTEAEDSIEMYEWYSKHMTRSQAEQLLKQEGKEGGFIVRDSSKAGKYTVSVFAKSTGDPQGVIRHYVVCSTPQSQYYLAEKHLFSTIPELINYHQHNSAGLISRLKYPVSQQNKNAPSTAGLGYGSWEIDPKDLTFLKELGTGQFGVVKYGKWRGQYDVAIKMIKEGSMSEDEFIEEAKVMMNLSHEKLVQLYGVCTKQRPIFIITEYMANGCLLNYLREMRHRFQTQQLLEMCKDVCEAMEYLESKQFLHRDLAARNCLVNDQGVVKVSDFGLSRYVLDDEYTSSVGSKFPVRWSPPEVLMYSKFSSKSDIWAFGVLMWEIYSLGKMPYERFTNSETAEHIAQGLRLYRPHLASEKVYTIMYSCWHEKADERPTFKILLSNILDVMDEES
Tyrosine-protein kinase JAK2, sequence (O60674 whole entry): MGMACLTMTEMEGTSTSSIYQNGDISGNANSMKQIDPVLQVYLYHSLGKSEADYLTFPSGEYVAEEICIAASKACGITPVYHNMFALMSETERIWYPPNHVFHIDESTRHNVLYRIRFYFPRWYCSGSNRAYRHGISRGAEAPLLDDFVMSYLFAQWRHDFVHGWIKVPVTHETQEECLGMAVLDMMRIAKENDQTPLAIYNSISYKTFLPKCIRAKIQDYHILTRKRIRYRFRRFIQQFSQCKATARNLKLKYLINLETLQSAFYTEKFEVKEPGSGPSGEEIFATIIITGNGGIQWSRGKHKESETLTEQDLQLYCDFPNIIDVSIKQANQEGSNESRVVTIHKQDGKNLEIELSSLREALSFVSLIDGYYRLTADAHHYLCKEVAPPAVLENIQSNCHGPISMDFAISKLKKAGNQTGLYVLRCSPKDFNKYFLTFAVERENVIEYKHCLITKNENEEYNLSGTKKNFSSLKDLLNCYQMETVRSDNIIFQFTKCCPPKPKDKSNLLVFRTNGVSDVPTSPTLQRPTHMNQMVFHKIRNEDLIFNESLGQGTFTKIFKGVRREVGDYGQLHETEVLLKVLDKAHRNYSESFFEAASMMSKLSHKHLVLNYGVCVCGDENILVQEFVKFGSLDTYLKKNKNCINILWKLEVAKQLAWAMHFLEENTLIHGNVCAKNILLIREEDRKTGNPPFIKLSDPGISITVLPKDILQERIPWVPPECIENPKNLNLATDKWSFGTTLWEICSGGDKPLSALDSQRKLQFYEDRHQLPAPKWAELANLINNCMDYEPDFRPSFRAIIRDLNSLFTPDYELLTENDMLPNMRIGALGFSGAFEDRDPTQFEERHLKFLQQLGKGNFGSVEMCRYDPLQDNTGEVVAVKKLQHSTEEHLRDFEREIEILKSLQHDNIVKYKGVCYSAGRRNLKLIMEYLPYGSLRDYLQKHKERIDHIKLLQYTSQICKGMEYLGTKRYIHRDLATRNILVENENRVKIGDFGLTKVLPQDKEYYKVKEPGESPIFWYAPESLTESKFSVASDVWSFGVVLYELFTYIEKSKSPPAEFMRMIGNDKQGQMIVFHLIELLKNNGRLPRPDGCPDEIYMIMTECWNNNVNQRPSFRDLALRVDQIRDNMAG
Insulin-like growth factor 1 receptor, sequence (P08069 31-736 limits assumed): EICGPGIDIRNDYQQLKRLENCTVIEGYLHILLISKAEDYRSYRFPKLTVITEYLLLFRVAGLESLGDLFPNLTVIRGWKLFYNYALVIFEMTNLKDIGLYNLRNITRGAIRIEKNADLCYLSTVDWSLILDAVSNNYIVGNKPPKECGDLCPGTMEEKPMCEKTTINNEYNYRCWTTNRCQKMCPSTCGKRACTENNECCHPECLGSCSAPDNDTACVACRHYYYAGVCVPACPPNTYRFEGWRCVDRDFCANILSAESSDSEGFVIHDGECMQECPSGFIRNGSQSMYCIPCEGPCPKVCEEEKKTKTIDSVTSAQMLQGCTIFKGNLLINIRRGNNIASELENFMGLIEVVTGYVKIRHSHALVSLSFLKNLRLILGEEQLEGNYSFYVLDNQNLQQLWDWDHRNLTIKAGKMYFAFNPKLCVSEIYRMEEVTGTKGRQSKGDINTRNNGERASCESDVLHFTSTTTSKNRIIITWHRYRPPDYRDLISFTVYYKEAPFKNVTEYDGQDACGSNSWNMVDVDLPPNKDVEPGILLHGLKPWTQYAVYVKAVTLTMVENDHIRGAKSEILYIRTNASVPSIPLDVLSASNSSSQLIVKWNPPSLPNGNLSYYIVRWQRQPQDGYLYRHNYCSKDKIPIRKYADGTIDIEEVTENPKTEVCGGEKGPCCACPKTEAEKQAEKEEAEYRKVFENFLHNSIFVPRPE
Insulin-like growth factor 1 receptor, sequence (P08069 741-1367 limits assumed): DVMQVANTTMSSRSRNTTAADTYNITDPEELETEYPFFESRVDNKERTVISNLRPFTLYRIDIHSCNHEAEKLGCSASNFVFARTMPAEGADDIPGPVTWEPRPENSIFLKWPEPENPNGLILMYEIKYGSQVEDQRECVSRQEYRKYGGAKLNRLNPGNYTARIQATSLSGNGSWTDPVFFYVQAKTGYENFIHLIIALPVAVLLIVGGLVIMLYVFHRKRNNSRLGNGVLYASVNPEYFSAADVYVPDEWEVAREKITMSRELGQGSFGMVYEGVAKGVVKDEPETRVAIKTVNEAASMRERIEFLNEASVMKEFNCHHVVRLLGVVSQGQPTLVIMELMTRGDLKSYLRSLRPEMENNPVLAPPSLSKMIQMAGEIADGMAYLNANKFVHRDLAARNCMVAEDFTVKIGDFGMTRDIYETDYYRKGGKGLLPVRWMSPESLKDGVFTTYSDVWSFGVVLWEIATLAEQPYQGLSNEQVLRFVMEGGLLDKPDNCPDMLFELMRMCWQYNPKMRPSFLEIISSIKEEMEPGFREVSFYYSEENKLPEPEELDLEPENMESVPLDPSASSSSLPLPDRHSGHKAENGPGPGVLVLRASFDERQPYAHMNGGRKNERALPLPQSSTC
Tyrosine-protein kinase Lck, sequence (P06239 whole entry): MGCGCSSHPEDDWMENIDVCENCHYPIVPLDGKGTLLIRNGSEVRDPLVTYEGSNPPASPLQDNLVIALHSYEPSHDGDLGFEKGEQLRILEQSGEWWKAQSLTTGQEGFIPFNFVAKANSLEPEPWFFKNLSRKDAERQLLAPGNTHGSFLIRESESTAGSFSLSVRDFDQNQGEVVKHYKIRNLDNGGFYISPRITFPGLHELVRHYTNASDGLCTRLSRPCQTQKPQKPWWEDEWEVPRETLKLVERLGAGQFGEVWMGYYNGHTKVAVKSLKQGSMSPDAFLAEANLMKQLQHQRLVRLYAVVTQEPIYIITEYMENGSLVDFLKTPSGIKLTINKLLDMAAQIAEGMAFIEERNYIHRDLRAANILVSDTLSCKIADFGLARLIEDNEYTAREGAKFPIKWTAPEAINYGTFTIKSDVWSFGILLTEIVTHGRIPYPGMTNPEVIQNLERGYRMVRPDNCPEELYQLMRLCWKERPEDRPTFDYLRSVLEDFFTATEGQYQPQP
Tyrosine-protein kinase JAK3, sequence (P52333 whole entry, the tested form may be a part): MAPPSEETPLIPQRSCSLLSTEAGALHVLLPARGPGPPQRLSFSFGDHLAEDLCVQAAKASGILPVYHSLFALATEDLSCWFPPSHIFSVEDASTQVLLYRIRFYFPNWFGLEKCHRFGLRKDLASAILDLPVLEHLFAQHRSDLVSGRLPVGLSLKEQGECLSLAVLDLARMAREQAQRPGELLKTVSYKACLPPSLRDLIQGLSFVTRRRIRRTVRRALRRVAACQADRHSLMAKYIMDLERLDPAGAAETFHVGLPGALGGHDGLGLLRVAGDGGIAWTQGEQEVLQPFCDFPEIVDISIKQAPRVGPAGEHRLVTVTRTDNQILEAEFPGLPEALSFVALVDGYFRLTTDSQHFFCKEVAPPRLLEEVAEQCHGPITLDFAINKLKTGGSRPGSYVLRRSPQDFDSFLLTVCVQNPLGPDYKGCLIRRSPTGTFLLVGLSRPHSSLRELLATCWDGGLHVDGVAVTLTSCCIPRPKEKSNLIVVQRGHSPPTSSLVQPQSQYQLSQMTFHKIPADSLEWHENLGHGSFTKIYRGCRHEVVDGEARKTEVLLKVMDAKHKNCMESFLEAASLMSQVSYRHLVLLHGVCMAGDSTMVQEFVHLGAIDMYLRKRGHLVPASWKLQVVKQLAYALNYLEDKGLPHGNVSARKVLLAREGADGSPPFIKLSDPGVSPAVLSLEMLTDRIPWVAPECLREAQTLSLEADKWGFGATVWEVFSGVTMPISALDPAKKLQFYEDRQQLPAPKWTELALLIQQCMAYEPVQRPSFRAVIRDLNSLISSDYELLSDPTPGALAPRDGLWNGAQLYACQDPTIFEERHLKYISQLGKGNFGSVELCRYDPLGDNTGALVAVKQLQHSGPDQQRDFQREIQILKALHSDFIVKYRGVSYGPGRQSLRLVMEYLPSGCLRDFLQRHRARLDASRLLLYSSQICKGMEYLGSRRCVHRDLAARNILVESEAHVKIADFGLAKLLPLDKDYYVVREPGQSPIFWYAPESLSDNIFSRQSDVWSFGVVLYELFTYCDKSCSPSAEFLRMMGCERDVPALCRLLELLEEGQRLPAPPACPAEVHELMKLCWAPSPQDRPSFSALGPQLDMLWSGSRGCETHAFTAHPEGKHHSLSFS

Cc1c(NC(=O)C(C)OC(=O)c2ccc([N+](=O)[O-])s2)c(=O)n(-c2ccccc2)n1C (stereo not drawn)
IC50 [1]: 7.32 µM (active)

CC(N)C1CCC(C(=O)Nc2ccnc3[nH]ccc23)CC1 (stereo not drawn)
Ki [2]: 1.26 µM (active)
Ki [3]: > 1.58 µM (inactive)
Ki [4]: 0.631 µM (active)
Ki [5]: > 7.94 µM (inactive)
Ki [6]: > 2.51 µM (inactive)
Ki [7]: > 1.58 µM (inactive)
Ki [8]: > 2.51 µM (inactive)
Ki [9]: > 3.98 µM (inactive)
Ki [10]: > 3.98 µM (inactive)
Ki [11]: > 1.26 µM (inactive)
Ki [12]: > 3.98 µM (inactive)
Ki (LIM domain kinase 1): 1 µM (active)
Ki [13]: > 2 µM (inactive)
Ki (Activated CDC42 kinase 1): > 3.98 µM (inactive)
Ki [14]: > 2 µM (inactive)
Ki [15]: 0.501 µM (active)
Ki [16]: 1.26 µM (active)
Ki [17]: > 3.98 µM (inactive)
Ki [18]: > 7.94 µM (inactive)
Ki [19]: > 10 µM (inactive)
Ki [20]: 0.0794 µM (active)
Ki [21]: > 6.31 µM (inactive)
Ki [22]: 3.98 µM (active)
Ki [23]: > 1.26 µM (inactive)
Ki [24]: > 3.98 µM (inactive)

COc1cc(Br)c(C(=O)c2nccc3cc(OC)c(OC)cc23)cc1OC
IC50 (SUMO-activating enzyme): 12.8 µM (active)
IC50 [25]: > 80 µM (inactive)
